Structures are written as SMILES.

One data set has as its system Mus musculus. Description: (§1) AUC in mouse plasma at 20 mg/kg, po. Conditions: in vivo. On the set-up: dose 20 mg/kg, route oral. Type of data set: ADME, organism-based.
A word on the AUC: it is the area under the concentration-time curve, a measure of exposure. High values mean high exposure, low ones low exposure. `Cc1cc(N2CCOCC2)cc2[nH]c(-c3c(NCCc4ncn(C)c4Cl)cc[nH]c3=O)nc12`: the AUC is 90 µM·h.

For `Cc1cc(N2CCOCC2)cc2[nH]c(-c3c(NCCn4cc(Cl)cn4)cc[nH]c3=O)nc12`, the AUC is 51 µM·h.

As for `Cc1cc(N2CCOCC2)cc2[nH]c(-c3c(NC[C@@H](O)c4cccc(Cl)c4)cc[nH]c3=O)nc12`, the AUC came out at 8.2 µM·h.

Test system in a further data set: not listed separately
The description is as §1. Format: ADME, organism-based. Further details: dose 20 mg/kg, route oral. Conditions: plasma.
With `COC(=O)N1CCN(C2CCN(c3cc(C)c4nc(-c5c(NCCn6cc(Cl)cn6)cc[nH]c5=O)[nH]c4c3)CC2)CC1`, the AUC was found to be 52 µM·h.

With `COC(=O)N1CCN(C2CCN(c3cc(C)c4nc(-c5c(NCCc6ncn(C)c6Cl)cc[nH]c5=O)[nH]c4c3)CC2)CC1`, the AUC amounted to 48 µM·h.

In turn, `COC(=O)N1CCN(C2CCN(c3cc(C)c4nc(-c5c(NC[C@@H](O)c6cccc(Cl)c6)cc[nH]c5=O)[nH]c4c3)CC2)CC1` yielded an AUC of 11 µM·h.

Values taken from ChEMBL document CHEMBL1155377, “SAR of PXR transactivation in benzimidazole-based IGF-1R kinase inhibitors” (Bioorg Med Chem Lett, 2010).
